pIC50: −log10 of the molar value. Several values for one entry are separate records, joined by “and”; a condition that tells them apart may be missing. Equal values may be shown once.
Tests used:
Format in all cases: cell-based, human
LNCaP cells = test: Clonogenic assay, LNCaP cells; details: for relative percent colony survival / minimal inhibitory concentration (MIC) of bicalutamide: LNCaP; for minimal inhibitory concentration (MIC) of bicalutamide: concentration that begins to inhibit colony formation
Experimental: (§1) Test Solutions. SPH test solutions were prepared by adding 10 μg, 40 μg, or 160 μg of SPH powder to 1 ml of DMEM containing 0.3% FBS+2% DMSO and sonicating for 10 min just prior to use. Bicalutamide, referred to herein as BIC, (Sigma-Aldrich, Catalog No. B9061) test solutions were prepared by adding 0.43 or 4.3 μg to 1 ml (1 μM and 10 μM) of DMEM containing 0.3% FBS+2% DMSO and sonicating for 10 min just prior to use.
(§2) Cell Culture. The C4 subline (CRL-3313™, RRID: CVCL 4783), which was derived from the human prostate carcinoma cell line LNCaP, was obtained from ATCC (Manassas, VA). C4, which is referred to herein as LNCaP, is an exemplary androgen receptor-positive (AR+ve) cell line that has an epithelial-like morphology and a low metastatic potential. The PC-3 cell line (CRL-1435, RRID: CVCL_0035) was obtained from ATCC (Manassas, VA). PC-3 is an exemplary androgen receptor-negative (AR−ve) cell line that has an epithelial morphology and a high metastatic potential. The Vertebral-Cancer of the Prostate (VCaP) cell line was obtained from Sigma-Aldrich, USA (Catalog No. 06020201). VCaP is a human cell line with an epithelial morphology that was established from a metastatic prostate cancer lesion (Korenchuk et al., In Vivo, 15(2):163˜168, 2001). VCaP cells are androgen receptor-positive and express high levels of prostate-specific antigen. The VCaP-EnzR cell line was also obtained from Sigma-Aldrich, USA (Catalog No. SCC421). […] VCaP-EnzR cells are enzalutamide-resistant and therefore are a suitable model for studying castration-resistant prostate cancer. All cell lines were cultured in RPMI1640 supplemented with 2 mmol/L L-glutamine. 100 U/mL penicillin, […] streptomycin, and 10% heat-inactivated fetal bovine serum. All cells were certified negative for Mycoplasma.
(§3) Clonogenic Assay. Confluent cells were trypsinized and seeded at densities ranging from 3000 to 5000 cells in 10 cm Petri dishes, depending on the cell line, as recommended in the ATCC or Sigma-Aldrich product sheets. […] Treatments were applied daily for 5 days without media changes. The colonies were allowed to develop over 12 days, stained with crystal violet and automatically counted using a TC20 Automated Cell Counter (Bio Rad, Hercules, CA). Each assay was internally controlled using untreated cells (cell media+0.1% DMSO). Relative plating efficiencies were expressed as percentages relative to the plating efficiency of untreated cells and reported as the relative percent colony survival value. All experiments were performed in triplicate.
(§4) All oligopeptides were tested in combination with BIC or ENZ in clonogenic assays. […] SPH absent wells (DMSO 0.04%) were used as the negative control. All experiments were run in triplicate.

PC3 cells = test: Clonogenic assay, PC3 cells; details: for decrease in survival compared to 10 μM bicalutamide monotreatment: 10 μM oligopeptide with 10 μM bicalutamide
Experimental: as §1, §2, §3, §4

[1] = tested on: ferritin heavy chain 1 (FTH1) mRNA; test: FTH1 gene expression by qRT-PCR in LNCaP cells
Experimental: (§5) Gene Expression. LNCaP, PC-3, VCaP, and VCaP-EnzR cells were seeded in 24-well plates and maintained in RPMI1640 medium supplemented with 2 mmol/L L-glutamine. 100 U/mL penicillin, […] streptomycin, and 10% heat-inactivated fetal bovine serum at 37° C. in a humidified 5% CO2 atmosphere. […] SPH absent wells (DMSO 0.04%) were used as the negative control. All experiments were run in triplicate.
(§6) Samples were studied for expression of the ferritin heavy chain 1 (FTH1) and transferrin receptor 1 ([…]) genes. Total RNA was extracted from cell pellets using the UPzol reagent (Biotechrabbit), followed by DNAse treatment (DNAse TURBO) according to the manufacturers' protocols. Complementary DNA (cDNA) was synthesized with the High Capacity cDNA Reverse Transcription Kit (Applied Biosystems) using random hexamers. Gene expression levels were measured by qRT-PCR.
(§7) 1 μl of cDNA (corresponding to 50 ng of reverse transcribed RNA) was amplified by Qpcr (QuantStudio™ 6 Flex Real-Time PCR System), using TaqMan™ Universal PCR Master Mix (Catalog No. 4304437) and a TaqMan™ assay (Roche Molecular Systems, Inc., Pleasanton, CA). FTH1 and TFRC gene expression was estimated relative to expression of the housekeeping gene, beta-actin (ACTB), following the standard formula: 2-ΔCt. TaqMan probe IDs used include: (i) FTH1, Hs01694011_s1; (ii) TFRC, Hs00951083_m1; and (iii) ACTB, Hs01060665_g1. […]

[2] = tested on: transferrin receptor 1 (TFRC) mRNA; test: TFRC gene expression by qRT-PCR in LNCaP cells
Experimental: as §5, §6, §7

[3] = tested on: ferritin heavy chain 1 (FTH1) mRNA; test: FTH1 gene expression by qRT-PCR in PC3 cells
Experimental: as §5, §6, §7

[4] = tested on: transferrin receptor 1 (TFRC) mRNA; test: TFRC gene expression by qRT-PCR in PC3 cells
Experimental: as §5, §6, §7

VCaP cells = test: Clonogenic assay, VCaP cells; details: 10 μM oligopeptide with […] enzalutamide, p<0.01
Experimental: as §1
(§8) Cell Culture. The C4 subline (CRL-3313™, RRID: CVCL 4783), which was derived from the human prostate carcinoma cell line LNCaP, was obtained from ATCC (Manassas, VA). C4, which is referred to herein as LNCaP, is an exemplary androgen receptor-positive (AR+ve) cell line that has an epithelial-like morphology and a low metastatic potential. The PC-3 cell line (CRL-1435, RRID: CVCL_0035) was obtained from ATCC (Manassas, VA). PC-3 is an exemplary androgen receptor-negative (AR−ve) cell line that has an epithelial morphology and a high metastatic potential. The Vertebral-Cancer of the Prostate (VCaP) cell line was obtained from Sigma-Aldrich, USA (Catalog No. 06020201). […]
(§9) Clonogenic Assay. […] The colonies were allowed to develop over 12 days, stained with crystal violet and automatically counted using a TC20 Automated Cell Counter (Bio Rad, Hercules, CA). […]

VCaP-EnzR cells = test: Clonogenic assay, VCaP-EnzR cells; details: 10 μM oligopeptide with […] μM enzalutamide, p<0.001
Experimental: as §1, §8, §9

[5] = tested on: ferritin heavy chain 1 (FTH1) mRNA; test: FTH1 gene expression by qRT-PCR in VCaP cells; details: oligopeptide at 10 μM with […] ENZ
Experimental: as §5, §6, §7

[6] = tested on: transferrin receptor 1 (TFRC) mRNA; test: TFRC gene expression by qRT-PCR in VCaP cells; details: oligopeptide at 10 μM with […] ENZ
Experimental: as §5, §6, §7

[7] = tested on: ferritin heavy chain 1 (FTH1) mRNA; test: FTH1 gene expression by qRT-PCR in VCaP-EnzR cells; details: oligopeptide at 10 μM with […] μM ENZ
Experimental: as §5, §6, §7

[8] = tested on: transferrin receptor 1 (TFRC) mRNA; test: TFRC gene expression by qRT-PCR in VCaP-EnzR cells; details: oligopeptide at 10 μM with […] μM ENZ
Experimental: as §5, §6, §7

[9] = 1 μM BIC alone, relative to ACTB
[10] = oligopeptide at 10 μM with 0.4 μM BIC
[11] = oligopeptide at 10 μM with 0.4 μM BIC, listed as FT-005-B
[12] = oligopeptide at 10 μM with 10 μM BIC
[13] = oligopeptide at 10 μM with 10 μM BIC, listed as FT-005-B
[14] = oligopeptide at 10 μM with 10 μM BIC, listed as FT-007-B
[15] = oligopeptide at 10 μM with 0.4 μM BIC, listed as FT-006-B
[16] = oligopeptide at 10 μM with 0.4 μM BIC, listed as FT-008-B
[17] = oligopeptide at 10 μM with 10 μM BIC, listed as FT-008-B
[18] = oligopeptide at 10 μM with 10 μM BIC, listed as FT-002-B

Compound | decrease in survival compared to 10 μM bicalutamide monotreatment (PC3 cells; PC3) | decrease in cell survival compared to […] enzalutamide with 160 SPH (VCaP cells) | relative survival (VCaP-EnzR cells) | FTH1 Fold Change, Average [1, 10] | TFRC Fold Change, Average [2, 10] | FTH1 Fold Change, Average [3, 12] | TFRC Fold Change, Average [4, 12] | FTH1 Fold Change, Average [5] | TFRC Fold Change, Average [6] | FTH1 Fold Change, Average [7] | TFRC Fold Change, Average [8] | also measured
CC(O)(CS(=O)(=O)c1ccc(F)cc1)C(=O)Nc1ccc(C#N)c(C(F)(F)F)c1 (centres unmarked) [BIC, bicalutamide, reference compound] |  |  |  |  |  |  |  |  |  |  |  | pIC50 (LNCaP cells; Homo sapiens, LNCaP clonogenic assay, read-out: IC50 of bicalutamide): 6.40; relative percent colony survival (LNCaP cells; 0.5 μM BIC alone): 85%; relative percent colony survival (LNCaP cells; 1.0 μM BIC alone): 25%; minimal inhibitory concentration (MIC) of bicalutamide (LNCaP cells): 1 µM; minimal inhibitory concentration (MIC) of bicalutamide (LNCaP cells; listed as bicalutamide): 0.5 µM; pIC50 (PC3 cells; Homo sapiens, PC-3, PC3 clonogenic assay, read-out: IC50 of bicalutamide): 5.00; relative percent colony survival (PC3 cells; PC3, 10 μM BIC alone): 52%; minimal inhibitory concentration (MIC) of bicalutamide (PC3 cells; PC3, concentration that begins to inhibit colony formation): 10 µM; FTH1 Fold Change (single replicates) [1, 9]: 1.0 (2×) and 1.1; FTH1 Fold Change, Average [1, 9]: 1.0; TFRC Fold Change (single replicates) [2, 9]: 1.0 (2×) and 1.2; TFRC Fold Change, Average [2, 9]: 1.1; FTH1 Fold Change (single replicates) ([3]; 10 μM BIC alone): 0.9 and 1.0 and 1.2; FTH1 Fold Change, Average ([3]; 10 μM BIC alone): 1.0; TFRC Fold Change (single replicates) ([4]; 10 μM BIC alone): 1.0 and 1.1 and 1.2; TFRC Fold Change, Average ([4]; 10 μM BIC alone): 1.1
LDEESGEP [FT-005, synthetic oligopeptide; -B / -E: tested with bicalutamide / enzalutamide] | approximately 70% | approximately 40% | 11% | 2.2 | 0.6 | 2.1 | 0.6 | 2.3 | 0.6 | 3.2 | 0.5 | FTH1 Fold Change (single replicates) [1, 11]: 2.2 (2×) and 2.3; TFRC Fold Change (single replicates) [2, 11]: 0.7 and 0.6 (2×); FTH1 Fold Change (single replicates) [3, 13]: 2.2 and 2.1 (2×); TFRC Fold Change (single replicates) [4, 13]: 0.7 and 0.5 (2×)
PREESDKP [FT-007] |  |  |  |  |  | 1.9 | 0.7 | 1.9 | 0.8 |  |  | FTH1 Fold Change (single replicates) [3, 14]: 1.9 (2×) and 2.0; TFRC Fold Change (single replicates) [4, 14]: 0.6 and 0.8 (2×)
REESDKPMY [FT-006] |  |  |  | 1.8 | 0.9 |  |  |  |  | 2.6 | 0.6 | FTH1 Fold Change (single replicates) [1, 15]: 1.9 (2×) and 1.6; TFRC Fold Change (single replicates) [2, 15]: 0.9 (2×) and 0.8
REESGEL [FT-008] |  |  |  | 2.0 | 0.8 | 1.8 | 0.9 | 2.2 | 0.7 | 2.5 | 0.6 | FTH1 Fold Change (single replicates) [1, 16]: 1.8 and 1.9 and 2.2; TFRC Fold Change (single replicates) [2, 16]: 0.8 (2×) and 0.9; FTH1 Fold Change (single replicates) [3, 17]: 1.8 (2×) and 1.9; TFRC Fold Change (single replicates) [4, 17]: 0.8 and 0.9 (2×); TFRC Fold Change (single replicates) [6]: 0.7
REESGEP [FT-002, synthetic oligopeptide; -B / -E: tested with bicalutamide / enzalutamide] | approximately 70% | approximately 40% | 11% | 2.0 | 0.7 | 2.0 | 0.7 | 2.2 | 0.6 | 3.6 | 0.5 | FTH1 Fold Change (single replicates) ([1]; oligopeptide at 10 μM with 0.4 μM BIC, listed as FT-002-B): 2.1 (2×) and 1.9; TFRC Fold Change (single replicates) [2, 10]: 0.7; FTH1 Fold Change (single replicates) [3, 18]: 2.0 (2×) and 2.1; TFRC Fold Change (single replicates) [4, 18]: 0.7 and 0.8 and 0.6
